Assay results from patent US5273978A, “Optically active isoindoline derivatives, their production and use” (Takeda Chemical Industries, Ltd., priority 1991, dated 1993).
Like-named read-outs stand apart in the source and are kept apart here.

What was measured:
benzodiazepine receptor = experiment: Inhibition of [3H]diazepam binding to benzodiazepine receptor (crude mitochondrial fraction of rat cerebral cortex); design: species or system male SD rats; conditions: in words
Method: The affinity of the compound of the present invention to a benzodiazepine receptor was investigated using radioactive [^3 H] diazepam.
Capability of specific binding to a benzodiazepin receptor was determined in accordance with the method described in the literature (Nature, 266, 732 (1977); European J. Pharmacol., 48, 263 (1978). Specifically, a crude mitochondrial fraction obtained from the cerebral cortex of male SD rats at 9 to 10 weeks of age was suspended in 50 mM Tris-HCL buffer (pH 7.4), and incubated, together with several concentrations of the subject drug and ^3 H-diazepam (final concentration 2 nM), at 4° C. for 20 minutes. This suspension was then filtered through a Whatman GF/B glass fiber filter, and the ^3 H-diazepam radioactivity on the filter was measured using a liquid scintillation counter. The concentration of the subject drug at which ^3 H-diazepam binding was inhibited by 50% was taken as the IC50 value.
Results from a typical compounds (VI) and (VIII) of the present invention and the corresponding racemic modifications thereof are shown in Table 1.

Male rats (SD/JCL) = experiment: Antianxiety action (Vogel method, anticonflict water drinking test in rats); format: in vivo, rat (SD/JCL); conditions: for minimal effective dose: Rattus norvegicus, rats; for antianxiety action stronger than that of the corresponding racemic modification: from MED values of Table 2
[1] = po, 0.5 h, p.o., 30 minutes after dosing, water drinking frequency in 3 minutes, read-out: Minimum Effective Dose (MED), antianxiety action (Vogel method)
[2] = ip, 0.05 h, i.p., water drinking frequency in 3 minutes, read-out: Minimum Effective Dose (MED), antianxiety action (Vogel method)

With `O=C(CC1c2ccccc2C(=O)N1c1ccc2ccc(Cl)nc2n1)N1CCC2(CC1)OCCO2` (racemic) [Racemic modification of (VI), reference compound] the “affinity to the benzodiazepin receptor versus racemic modification” value (benzodiazepine receptor) was “nearly fully potent action” and the minimal effective dose (Male rats (SD/JCL); [1]) was 10 mg/kg.

In the case of `O=C(CC1c2ccccc2C(=O)N1c1ccc2ccc(Cl)nc2n1)N1CCC(O)CC1` (racemic) [Racemic modification of (VIII), reference compound], the minimal effective dose (Male rats (SD/JCL); [2]) is reported as 20 mg/kg.

`O=C(C[C@H]1c2ccccc2C(=O)N1c1ccc2ccc(Cl)nc2n1)N1CCC2(CC1)OCCO2` [(VI), (S)-(+)-2-(7-chloro-1,8-naphthylidin-2yl)-3-[(1,4-dioxa-8-azaspiro[4.5]dec-8-yl)carbonylmethyl]isoindolin-1-one] was tested, and the “affinity to the benzodiazepin receptor versus racemic modification” value (benzodiazepine receptor) was “no enhanced affinity”, the minimal effective dose (Male rats (SD/JCL); po, 0.5 h, P.O., read-out: MED for antianxiety action in rats) was ≤ 1.25 mg/kg and the minimal effective dose (Male rats (SD/JCL); [1]) was 1.25 mg/kg. For the same compound, the “antianxiety action stronger than that of the corresponding racemic modification” value (Male rats (SD/JCL)) was 8 times.

For `O=C(C[C@H]1c2ccccc2C(=O)N1c1ccc2ccc(Cl)nc2n1)N1CCC(O)CC1` [(VIII), (S)-(+)-2-(7-chloro-1,8-naphthylidin-2-yl)-3-[(4-hydroxypiperidin-1-yl)carbonylmethyl]isoindolin-1-one], the minimal effective dose (Male rats (SD/JCL); [2]) was 5 mg/kg and the “antianxiety action stronger than that of the corresponding racemic modification” value (Male rats (SD/JCL)) was 4 times.
